Laboratory results taken from the NIST ThermoML archive (doi:10.1016/j.tca.2016.01.006).
± gives the expanded uncertainty stated by the source.

Assays:
[1] = DTA
[2] = Molar enthalpy of transition or fusion; settings: DSC

With `CC1=C(CC(=O)O)c2cc(F)ccc2/C1=C\c1ccc([S+](C)[O-])cc1` (centres undefined) the Normal melting temperature ([1]; Crystal 1) was 190.00 ± 2 °C, the Normal melting temperature ([1]; Metastable crystal) was 185.00 ± 2 °C and the “Molar enthalpy of transition or fusion” value ([2]; Crystal 1) was 5.45 ± 0.17 kcal/mol. For the same compound, the “Molar enthalpy of transition or fusion” value ([2]; Metastable crystal) was 7.24 ± 0.17 kcal/mol.
